According to article PMC2900529 (FEBS letters, 2010):

Columns and labels:
E. coli LysRS = biological target: T1, E. coli LysRS (Escherichia coli, UniProt P0A8N3); experiment: amino acid activation; format: biochemical; conditions: analog 25 mM; ATP
T1 sequence (P0A8N3 2-505): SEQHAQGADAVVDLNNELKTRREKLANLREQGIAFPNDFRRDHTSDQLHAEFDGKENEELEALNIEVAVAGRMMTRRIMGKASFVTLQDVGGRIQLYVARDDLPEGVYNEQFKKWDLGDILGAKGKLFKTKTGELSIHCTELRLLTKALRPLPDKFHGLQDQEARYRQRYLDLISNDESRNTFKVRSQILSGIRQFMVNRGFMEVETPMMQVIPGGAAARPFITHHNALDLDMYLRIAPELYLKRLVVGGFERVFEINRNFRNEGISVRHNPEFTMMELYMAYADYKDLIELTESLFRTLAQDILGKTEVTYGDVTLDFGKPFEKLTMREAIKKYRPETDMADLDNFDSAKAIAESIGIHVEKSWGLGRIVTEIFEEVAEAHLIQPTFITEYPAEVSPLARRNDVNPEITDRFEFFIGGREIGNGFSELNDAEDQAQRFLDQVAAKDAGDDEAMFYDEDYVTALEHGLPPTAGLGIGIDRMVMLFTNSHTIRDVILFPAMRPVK

GenX (PoxA, YjeA) = biological target: T2, GenX (PoxA, YjeA) (Escherichia coli, UniProt P0A8N7); experiment: inhibition of lysine activation, ATP-[…]PPi exchange; format: biochemical
T2 sequence (P0A8N7 1-325): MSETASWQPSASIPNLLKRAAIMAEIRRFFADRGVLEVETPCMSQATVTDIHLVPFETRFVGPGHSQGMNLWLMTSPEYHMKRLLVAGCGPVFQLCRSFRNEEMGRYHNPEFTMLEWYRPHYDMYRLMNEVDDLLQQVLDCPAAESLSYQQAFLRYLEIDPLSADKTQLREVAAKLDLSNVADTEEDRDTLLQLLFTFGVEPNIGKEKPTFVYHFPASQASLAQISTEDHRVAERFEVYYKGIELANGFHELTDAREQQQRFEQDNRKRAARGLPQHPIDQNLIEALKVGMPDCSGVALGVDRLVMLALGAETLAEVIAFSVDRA

Ki (GenX (PoxA, YjeA)) [µM] | SMILES | amino acid activation (E. coli LysRS)
– | NCCSC[C@H](N)C(=O)O [compound 1, S-(2-aminoethyl)-L-cysteine] | E. coli LysRS readily activates S-(2-aminoethyl)-L-cysteine (AEC), ornithine
150 | NCCCC[C@H](N)C(=O)NO [compound 2, L-lysine hydroxamate] | –
280 | NCCCC[C@H](N)C(N)=O [compound 3, lysinamide] | –
